Measurements reported in patent US20240228504A1, “SUBSTITUTED TRICYCLIC AMIDES, ANALOGUES THEREOF, AND METHODS USING SAME” (Arbutus Biopharma Corporation, priority 2020, published 2024).

The compounds below were run on HBV rcDNA in HepDE19 cells (assay: HepDE19 assay with bDNA quantitation of HBV rcDNA). Conditions: Hepatitis B virus, HepDE19, HepDE19 assay, inhibition of rcDNA formation, bDNA quantitation; read-out: DE-19bDNA EC50.
Type: cell-based, hepatitis B virus

`CN(C(=O)c1cc2cc(F)c(C(F)F)cc2[nH]1)[C@@H]1COC(=O)c2[nH]c(=O)c3cc(F)c(F)cc3c21` [Compound 478, (S)-N-(8,9-Difluoro-4,6-dioxo-1,4,5,6-tetrahydro-2H-pyrano[3,4-c]isoquinolin-1-yl)-6-(difluoromethyl)-5-fluoro-N-methyl-1H-indole-2-carboxamide] and `CN(C(=O)c1cc2cc(F)c(C(F)F)cc2[nH]1)[C@@H]1COC(O)c2[nH]c(=O)c3cc(F)c(F)cc3c21` (stereo partly drawn) [Compound 488, N-((1S)-8,9-Difluoro-4-hydroxy-6-oxo-1,4,5,6-tetrahydro-2H-pyrano[3,4-c]isoquinolin-1-yl)-6-(difluoromethyl)-5-fluoro-N-methyl-1H-indole-2-carboxamide] are the same in EC50: 10 nM for the first, 10 nM for the second.

Compared with `CN(C(=O)c1cc2cc(F)c(C(F)F)cc2[nH]1)[C@@H]1CCCc2[nH]c(=O)c3cc(F)ccc3c21` [Compound 479, (R)-6-(difluoromethyl)-5-fluoro-N-(8-fluoro-6-oxo-1,2,3,4,5,6-hexahydrophenanthridin-1-yl)-N-methyl-1H-indole-2-carboxamide], `CN(C(=O)c1cc2cc(F)c(F)cc2[nH]1)[C@@H]1CCCc2[nH]c(=O)c3cc(F)ccc3c21` [Compound 490, (R)-5,6-difluoro-N-(8-fluoro-6-oxo-1,2,3,4,5,6-hexahydrophenanthridin-1-yl)-N-methyl-1H-indole-2-carboxamide] is 2-fold lower in EC50: 40 nM for the first, 20 nM for the second. The second is the more potent here.

`CN(C(=O)c1cc2cc(F)ccc2[nH]1)[C@@H]1CCCc2[nH]c(=O)c3cc(F)c(F)cc3c21` [Compound 480, (R)-N-(8,9-difluoro-6-oxo-1,2,3,4,5,6-hexahydrophenanthridin-1-yl)-5-fluoro-N-methyl-1H-indole-2-carboxamide] and `CN(C(=O)c1cc2cc(F)c(F)cc2[nH]1)[C@@H]1CCCc2[nH]c(=O)c3cc(F)c(F)cc3c21` [Compound 481, (R)-N-(8,9-difluoro-6-oxo-1,2,3,4,5,6-hexahydrophenanthridin-1-yl)-5,6-difluoro-N-methyl-1H-indole-2-carboxamide] are the same in EC50: 10 nM for the first, 10 nM for the second.

`CN(C(=O)c1cc2cc(F)c(C(F)F)cc2[nH]1)[C@@H]1CCCc2[nH]c(=O)c3cc(F)c(F)cc3c21` [Compound 482, (R)-N-(8,9-difluoro-6-oxo-1,2,3,4,5,6-hexahydrophenanthridin-1-yl)-6-(difluoromethyl)-5-fluoro-N-methyl-1H-indole-2-carboxamide] and `CN(C(=O)c1cc2c(C(F)F)cc(F)cc2[nH]1)[C@@H]1CCCc2[nH]c(=O)c3cc(F)c(F)cc3c21` [Compound 483, (R)-N-(8,9-difluoro-6-oxo-1,2,3,4,5,6-hexahydrophenanthridin-1-yl)-4-(difluoromethyl)-6-fluoro-N-methyl-1H-indole-2-carboxamide] are the same in EC50: 10 nM for the first, 10 nM for the second.

`Cc1cccc2[nH]c(C(=O)N(C)[C@@H]3CCCc4[nH]c(=O)c5cc(F)c(F)cc5c43)cc12` [Compound 484, (R)-N-(8,9-difluoro-6-oxo-1,2,3,4,5,6-hexahydrophenanthridin-1-yl)-N,4-dimethyl-1H-indole-2-carboxamide] and `Cc1cc(F)cc2[nH]c(C(=O)N(C)[C@@H]3CCCc4[nH]c(=O)c5cc(F)c(F)cc5c43)cc12` [Compound 485, (R)-N-(8,9-difluoro-6-oxo-1,2,3,4,5,6-hexahydrophenanthridin-1-yl)-6-fluoro-N,4-dimethyl-1H-indole-2-carboxamide] are the same in EC50: 10 nM for the first, 10 nM for the second.

Compared with `CN(Cc1ccc(Br)c(F)c1)[C@@H]1COCc2[nH]c(=O)c3cc(F)c(F)cc3c21` [Compound 486, (S)-1-((4-bromo-3-fluorobenzyl)(methyl)amino)-8,9-difluoro-1,5-dihydro-2H-pyrano[3,4-c]isoquinolin-6(4H)-one], `CN(Cc1cc2cc(F)c(F)cc2[nH]1)[C@@H]1COCc2[nH]c(=O)c3cc(F)c(F)cc3c21` [Compound 494, (S)-1-(((5,6-difluoro-1H-indol-2-yl)methyl)(methyl)amino)-8,9-difluoro-1,5-dihydro-2H-pyrano[3,4-c]isoquinolin-6(4H)-one] is 5.5-fold lower in EC50: 8280 nM for the first, 1500 nM for the second. The second is the more potent here.

Going from `CN(C(=O)c1cc2sc(Cl)cc2[nH]1)[C@@H]1COC(O)c2[nH]c(=O)c3cc(F)c(F)cc3c21` (stereo partly drawn) [Compound 487, 2-Chloro-N-((1S)-8,9-difluoro-4-hydroxy-6-oxo-1,4,5,6-tetrahydro-2H-pyrano[3,4-c]isoquinolin-1-yl)-N-methyl-4H-thieno[3,2-b]pyrrole-5-carboxamide] to `[2H][C@@]1(N(C(=O)c2cc3sc(Cl)cc3[nH]2)[13C]([2H])([2H])[2H])COCc2[nH]c(=O)c3cc(F)c(F)cc3c21` [Compound 516, (S)-2-Chloro-N-(8,9-difluoro-6-oxo-1,4,5,6-tetrahydro-2H-pyrano[3,4-c]isoquinolin-1-yl-1-d)-N-(methyl-^13C-d3)-4H-thieno[3,2-b]pyrrole-5-carboxamide], the EC50 falls from 20 nM to 10 nM (2-fold).

Compared with `CN(C(=O)c1cc2cc(F)ccc2[nH]1)[C@@H]1CCCc2[nH]c(=O)c3cc(F)ccc3c21` [Compound 489, (R)-5-Fluoro-N-(8-fluoro-6-oxo-1,2,3,4,5,6-hexahydrophenanthridin-1-yl)-N-methyl-11H-indole-2-carboxamide], `Cc1cc(F)cc2[nH]c(C(=O)N(C)[C@@H]3CCCc4[nH]c(=O)c5cc(F)ccc5c43)cc12` [Compound 492, (R)-6-fluoro-N-(8-fluoro-6-oxo-1,2,3,4,5,6-hexahydrophenanthridin-1-y1)-N,4-dimethyl-1H-indole-2-carboxamide] is 3-fold higher in EC50: 10 nM for the first, 30 nM for the second. The first is the more potent here.

Compared with `Cc1cccc2[nH]c(C(=O)N(C)[C@@H]3CCCc4[nH]c(=O)c5cc(F)ccc5c43)cc12` [Compound 491, (R)-N-(8-fluoro-6-oxo-1,2,3,4,5,6-hexahydrophenanthridin-1-y1)-N,4-dimethyl-1H-indole-2-carboxamide], `CN(C(=O)c1cc2c(C(F)F)cc(F)cc2[nH]1)[C@@H]1CCCc2[nH]c(=O)c3cc(F)ccc3c21` [Compound 493, (R)-4-(difluoromethyl)-6-fluoro-N-(8-fluoro-6-oxo-1,2,3,4,5,6-hexahydrophenanthridin-1-y1)-N-methyl-1H-indole-2-carboxamide] is 2-fold lower in EC50: 20 nM for the first, 10 nM for the second. The second is the more potent here.

Compared with `CN(C(=O)c1cc2cc(F)c(F)cc2[nH]1)[C@@H]1CCC(O)c2[nH]c(=O)c3cc(F)c(F)cc3c21` (stereo partly drawn) [Compound 503, N-((1R)-8,9-difluoro-4-hydroxy-6-oxo-1,2,3,4,5,6-hexahydrophenanthridin-1-yl)-5,6-difluoro-N-methyl-1H-indole-2-carboxamide], `[2H][C@@]1(N(C(=O)c2cc3cc(F)c(F)cc3[nH]2)[13C]([2H])([2H])[2H])COCc2[nH]c(=O)c3cc(F)c(F)cc3c21` [Compound 514, (S)-N-(8,9-Difluoro-6-oxo-1,4,5,6-tetrahydro-2H-pyrano[3,4-c]isoquinolin-1-yl-1-d)-5,6-difluoro-N-(methyl-^13C-d3)-1H-indole-2-carboxamide] is 2.5-fold lower in EC50: 20 nM for the first, 8 nM for the second. The second is the more potent here.

First: CN(C(=O)C(F)(F)c1ccccc1)[C@@H]1COCc2[nH]c(=O)c3cc(F)c(F)cc3c21 [Compound 512, (S)-N-(8,9-Difluoro-6-oxo-1,4,5,6-tetrahydro-2H-pyrano[3,4-c]isoquinolin-1-yl)-2,2-difluoro-N-methyl-2-phenylacetamide]
Second: [2H][C@@]1(N(C(=O)c2cc3cc(F)c(C(F)F)cc3[nH]2)[13C]([2H])([2H])[2H])COCc2[nH]c(=O)c3cc(F)c(F)cc3c21 [Compound 515, (S)-N-(8,9-Difluoro-6-oxo-1,4,5,6-tetrahydro-2H-pyrano[3,4-c]isoquinolin-1-yl-1-d)-6-(difluoromethyl)-5-fluoro-N-(methyl-^13C-d3)-1H-indole-2-carboxamide]
The EC50 of the first is 2500-fold higher: 25000 nM for the first, 10 nM for the second.
